# Measurements from ChEMBL document CHEMBL1201862, “PubChem BioAssay data set” (2004).
#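 Briefly, cells in 96-well plates were exposed to five compound concentrations for 48 h, and endpoints were estimated by linear interpolation. The concentration for 50% growth inhibition is given as GI50.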 Activity calls are given as the source filed them. Cut-off read from the data, not from the text of the source: active = GI50 up to about 1.1 µM and inactive = higher.
# What was measured:
# Test in all cases: NCI anticancer screen, dose series, 48 h
# 786-0 = system: 786-0
# A498 = system: A498
# A549 = system: A549
# ACHN = system: ACHN
# CAKI-1 = system: CAKI-1
# CCRF-CEM = system: CCRF-CEM
# COLO 205 = system: COLO 205
# DU-145 = system: DU-145
# EKVX = system: EKVX
# HCC 2998 = system: HCC 2998
# HCT-116 = system: HCT-116
# HCT-15 = system: HCT-15
# HL-60 = system: HL-60
# HOP-62 = system: HOP-62
# HOP-92 = system: HOP-92
# HT-29 = system: HT-29
# Hs-578T = system: Hs-578T
# IGROV-1 = system: IGROV-1
# KM12 = system: KM12
# LOX IMVI = system: LOX IMVI
# M14 = system: M14
# MCF7 = system: MCF7
# MDA-MB-231 = system: MDA-MB-231
# MDA-MB-435 = system: MDA-MB-435
# MDA-N = system: MDA-N
# MOLT-4 = system: MOLT-4
# Malme-3M = system: Malme-3M
# NCI-H226 = system: NCI-H226
# NCI-H23 = system: NCI-H23
# NCI-H460 = system: NCI-H460
# NCI-H522 = system: NCI-H522
# NCI/ADR-RES = system: NCI/ADR-RES
# OVCAR-4 = system: OVCAR-4
# OVCAR-5 = system: OVCAR-5
# OVCAR-8 = system: OVCAR-8
# PC-3 = system: PC-3
# RXF 393 = system: RXF 393
# SF-268 = system: SF-268
# SF-295 = system: SF-295
# SF-539 = system: SF-539
# SK-MEL-28 = system: SK-MEL-28
# SK-MEL-2 = system: SK-MEL-2
# SK-MEL-5 = system: SK-MEL-5
# SN12C = system: SN12C
# SNB-19 = system: SNB-19
# SNB-75 = system: SNB-75
# SR = system: SR
# SW-620 = system: SW-620
# T47D = system: T47D
# TK-10 = system: TK-10
# U-251 = system: U-251
# UACC-257 = system: UACC-257
# UO-31 = system: UO-31
# BT-549 = system: BT-549
# K562 = system: K562
# OVCAR-3 = system: OVCAR-3
# RPMI-8226 = system: RPMI-8226
# SK-OV-3 = system: SK-OV-3
# UACC-62 = system: UACC-62
smiles,measurement,setting,value
CCCc1cc(O)c2c(C)c3[nH]c4ccc(Cl)cc4c3c(C)c2n1,GI50,786-0,1.61 µM (inactive)
same,GI50,A498,1.49 µM (inactive)
same,GI50,A549,2.24 µM (inactive)
same,GI50,ACHN,1.91 µM (inactive)
same,GI50,CAKI-1,2 µM (inactive)
same,GI50,CCRF-CEM,2.07 µM (inactive)
same,GI50,COLO 205,2 µM (inactive)
same,GI50,DU-145,6.3 µM (inactive)
same,GI50,EKVX,2.44 µM (inactive)
same,GI50,HCC 2998,1.62 µM (inactive)
same,GI50,HCT-116,1.63 µM (inactive)
same,GI50,HCT-15,1.69 µM
same,GI50,HL-60,1.67 µM (inactive)
same,GI50,HOP-62,2.2 µM (inactive)
same,GI50,HOP-92,2.31 µM (inactive)
same,GI50,HT-29,1.77 µM (inactive)
same,GI50,Hs-578T,9.57 µM (inactive)
same,GI50,IGROV-1,2.13 µM (inactive)
same,GI50,KM12,3.48 µM (inactive)
same,GI50,LOX IMVI,1.82 µM (inactive)
same,GI50,M14,3.1 µM (inactive)
same,GI50,MCF7,1.83 µM (inactive)
same,GI50,MDA-MB-231,1.85 µM (inactive)
same,GI50,MDA-MB-435,1.6 µM (inactive)
same,GI50,MDA-N,1.9 µM (inactive)
same,GI50,MOLT-4,2.81 µM (inactive)
same,GI50,Malme-3M,10.7 µM (inactive)
same,GI50,NCI-H226,2.81 µM (inactive)
same,GI50,NCI-H23,2.91 µM (inactive)
same,GI50,NCI-H460,1.97 µM (inactive)
same,GI50,NCI-H522,1.87 µM (inactive)
same,GI50,NCI/ADR-RES,3.21 µM (inactive)
same,GI50,OVCAR-4,1.86 µM (inactive)
same,GI50,OVCAR-5,2.46 µM (inactive)
same,GI50,OVCAR-8,2.55 µM (inactive)
same,GI50,PC-3,4.06 µM (inactive)
same,GI50,RXF 393,1.51 µM (inactive)
same,GI50,SF-268,6.71 µM (inactive)
same,GI50,SF-295,2.36 µM (inactive)
same,GI50,SF-539,1.92 µM (inactive)
same,GI50,SK-MEL-28,1.46 µM (inactive)
same,GI50,SK-MEL-2,3.57 µM (inactive)
same,GI50,SK-MEL-5,9.68 µM (inactive)
same,GI50,SN12C,2.36 µM (inactive)
same,GI50,SNB-19,2.55 µM (inactive)
same,GI50,SNB-75,2.9 µM (inactive)
same,GI50,SR,1.88 µM (inactive)
same,GI50,SW-620,1.63 µM (inactive)
same,GI50,T47D,1.85 µM (inactive)
same,GI50,TK-10,1.94 µM (inactive)
same,GI50,U-251,1.69 µM (inactive)
same,GI50,UACC-257,2 µM (inactive)
same,GI50,UO-31,1.75 µM (inactive)
CCOC(=O)CCC(C(=O)OCC)n1nnc2ccc(Nc3c(C)[n+]([O-])c4cc(Cl)ccc4[n+]3[O-])cc21 (configuration not stated),GI50,786-0,45.4 µM (inactive)
same,GI50,A549,61.5 µM (inactive)
same,GI50,ACHN,34.7 µM (inactive)
same,GI50,BT-549,26.5 µM (inactive)
same,GI50,CAKI-1,34.4 µM (inactive)
same,GI50,CCRF-CEM,29.1 µM (inactive)
same,GI50,COLO 205,19.3 µM (inactive)
same,GI50,DU-145,30.4 µM (inactive)
same,GI50,EKVX,27.7 µM (inactive)
same,GI50,HCC 2998,16.8 µM (inactive)
same,GI50,HCT-116,25.1 µM (inactive)
same,GI50,HCT-15,22.8 µM
same,GI50,HL-60,29.9 µM (inactive)
same,GI50,HOP-62,31.9 µM (inactive)
same,GI50,HOP-92,16 µM (inactive)
same,GI50,HT-29,27.2 µM (inactive)
same,GI50,Hs-578T,32.4 µM (inactive)
same,GI50,IGROV-1,27.7 µM (inactive)
same,GI50,K562,22.6 µM (inactive)
same,GI50,KM12,22.2 µM (inactive)
same,GI50,LOX IMVI,17.7 µM (inactive)
same,GI50,M14,19 µM (inactive)
same,GI50,MCF7,17.9 µM (inactive)
same,GI50,MDA-MB-435,19.2 µM (inactive)
same,GI50,MOLT-4,38.2 µM (inactive)
same,GI50,Malme-3M,17.3 µM (inactive)
same,GI50,NCI-H226,26.5 µM (inactive)
same,GI50,NCI-H23,24.8 µM (inactive)
same,GI50,NCI-H460,35.3 µM (inactive)
same,GI50,NCI-H522,19.5 µM (inactive)
same,GI50,NCI/ADR-RES,31.8 µM (inactive)
same,GI50,OVCAR-3,17.7 µM (inactive)
same,GI50,OVCAR-4,18.3 µM (inactive)
same,GI50,OVCAR-5,46.5 µM (inactive)
same,GI50,OVCAR-8,21.5 µM (inactive)
same,GI50,PC-3,53.8 µM (inactive)
same,GI50,RPMI-8226,20.9 µM (inactive)
same,GI50,RXF 393,22.4 µM (inactive)
same,GI50,SF-268,18.8 µM (inactive)
same,GI50,SF-295,68.1 µM (inactive)
same,GI50,SF-539,19.9 µM (inactive)
same,GI50,SK-MEL-2,21.7 µM (inactive)
same,GI50,SK-OV-3,99.5 µM (inactive)
same,GI50,SN12C,24.5 µM (inactive)
same,GI50,SNB-19,> 100 µM (inactive)
same,GI50,SNB-75,44.7 µM (inactive)
same,GI50,SR,30.3 µM (inactive)
same,GI50,T47D,19.5 µM (inactive)
same,GI50,TK-10,71.8 µM (inactive)
same,GI50,U-251,51.8 µM (inactive)
same,GI50,UACC-257,16.3 µM (inactive)
same,GI50,UACC-62,17.4 µM (inactive)
same,GI50,UO-31,34.8 µM (inactive)
COC(=O)c1c(C)cccc1C1CN=NC12Cc1ccc(C)cc1C2=O (configuration not stated),GI50,786-0,71.3 µM (inactive)
same,GI50,A498,43.6 µM (inactive)
same,GI50,A549,33.5 µM (inactive)
same,GI50,ACHN,26.9 µM (inactive)
same,GI50,CAKI-1,> 100 µM (inactive)
same,GI50,CCRF-CEM,32.4 µM (inactive)
same,GI50,DU-145,49 µM (inactive)
same,GI50,EKVX,26.7 µM (inactive)
same,GI50,HCC 2998,40.9 µM (inactive)
same,GI50,HCT-116,25 µM (inactive)
same,GI50,HCT-15,50.2 µM
same,GI50,HL-60,21.6 µM (inactive)
same,GI50,HOP-62,52.7 µM (inactive)
same,GI50,HOP-92,23.8 µM (inactive)
same,GI50,HT-29,31.8 µM (inactive)
same,GI50,Hs-578T,39.4 µM (inactive)
same,GI50,IGROV-1,52 µM (inactive)
same,GI50,K562,29.8 µM (inactive)
same,GI50,KM12,47.9 µM (inactive)
same,GI50,LOX IMVI,28.6 µM (inactive)
same,GI50,M14,38.8 µM (inactive)
same,GI50,MCF7,37.2 µM (inactive)
same,GI50,MDA-MB-231,47.1 µM (inactive)
same,GI50,MDA-MB-435,32.7 µM (inactive)
same,GI50,MDA-N,41.4 µM (inactive)
same,GI50,MOLT-4,27.4 µM (inactive)
same,GI50,Malme-3M,33.2 µM (inactive)
same,GI50,NCI-H226,44.4 µM (inactive)
same,GI50,NCI-H23,39.2 µM (inactive)
same,GI50,NCI-H460,15 µM (inactive)
same,GI50,NCI-H522,29.4 µM (inactive)
same,GI50,NCI/ADR-RES,23 µM (inactive)
same,GI50,OVCAR-3,38.6 µM (inactive)
same,GI50,OVCAR-4,48.8 µM (inactive)
same,GI50,OVCAR-5,> 100 µM (inactive)
same,GI50,OVCAR-8,43.2 µM (inactive)
same,GI50,PC-3,39.2 µM (inactive)
same,GI50,RPMI-8226,25.6 µM (inactive)
same,GI50,RXF 393,75.9 µM (inactive)
same,GI50,SF-268,50.7 µM (inactive)
same,GI50,SF-295,65.9 µM (inactive)
same,GI50,SF-539,47 µM (inactive)
same,GI50,SK-MEL-28,43.4 µM (inactive)
same,GI50,SK-MEL-5,17.5 µM (inactive)
same,GI50,SN12C,48.4 µM (inactive)
same,GI50,SNB-19,38.1 µM (inactive)
same,GI50,SNB-75,57.5 µM (inactive)
same,GI50,SR,40.2 µM (inactive)
same,GI50,SW-620,41 µM (inactive)
same,GI50,T47D,17.1 µM (inactive)
same,GI50,TK-10,> 100 µM (inactive)
same,GI50,U-251,41.9 µM (inactive)
same,GI50,UACC-257,49.1 µM (inactive)
same,GI50,UACC-62,32.6 µM (inactive)
same,GI50,UO-31,36.1 µM (inactive)
Cc1cc2nc3c(C#N)c(-c4ccccc4)cc(Nc4ccc(F)cc4)n3c2cc1C,GI50,786-0,8.49 µM (inactive)
same,GI50,A498,22.1 µM (inactive)
same,GI50,ACHN,16.4 µM (inactive)
same,GI50,BT-549,22.6 µM (inactive)
same,GI50,CAKI-1,29.9 µM (inactive)
same,GI50,COLO 205,> 100 µM (inactive)
same,GI50,EKVX,14.6 µM (inactive)
same,GI50,HCT-116,13.7 µM (inactive)
same,GI50,HCT-15,9.25 µM
same,GI50,HOP-62,14.4 µM (inactive)
same,GI50,HOP-92,5.01 µM (inactive)
same,GI50,HT-29,28.6 µM (inactive)
same,GI50,KM12,86.7 µM (inactive)
same,GI50,LOX IMVI,13.4 µM (inactive)
same,GI50,MDA-MB-231,15.1 µM (inactive)
same,GI50,MDA-MB-435,> 100 µM (inactive)
same,GI50,MOLT-4,17.6 µM (inactive)
same,GI50,Malme-3M,21.5 µM (inactive)
same,GI50,NCI-H226,27.2 µM (inactive)
same,GI50,NCI-H23,13.4 µM (inactive)
same,GI50,NCI-H522,4.33 µM (inactive)
same,GI50,NCI/ADR-RES,8.11 µM (inactive)
same,GI50,OVCAR-3,12.2 µM (inactive)
same,GI50,OVCAR-4,53.6 µM (inactive)
same,GI50,OVCAR-5,15.6 µM (inactive)
same,GI50,OVCAR-8,10.7 µM (inactive)
same,GI50,RPMI-8226,> 100 µM (inactive)
same,GI50,RXF 393,14.4 µM (inactive)
same,GI50,SF-268,10.5 µM (inactive)
same,GI50,SF-295,17.6 µM (inactive)
same,GI50,SF-539,18.6 µM (inactive)
same,GI50,SK-MEL-28,46.2 µM (inactive)
same,GI50,SK-MEL-5,16 µM (inactive)
same,GI50,SK-OV-3,16.7 µM (inactive)
same,GI50,SN12C,13.9 µM (inactive)
same,GI50,SNB-75,15.9 µM (inactive)
same,GI50,SW-620,55.5 µM (inactive)
same,GI50,T47D,> 100 µM (inactive)
same,GI50,TK-10,12.4 µM (inactive)
same,GI50,U-251,4.33 µM (inactive)
same,GI50,UACC-257,7.5 µM (inactive)
